Values after ≈ are worked out from the molar mass of the structure shown.
Key:
Type in all cases: functional
[1] = system: Pseudomonas aeruginosa; assay: Antimicrobial activity against Pseudomonas aeruginosa ATCC 10145 after 48 hr by two-fold serial broth dilution method; conditions: ATCC 10145, 48 h
[2] = system: Staphylococcus aureus; assay: Antimicrobial activity against Staphylococcus aureus DSM 1104 after 48 hr by two-fold serial broth dilution method; conditions: DSM 1104, 48 h
[3] = system: Pseudomonas aeruginosa; assay: Ratio of ampicillin MIC to compound MIC for Pseudomonas aeruginosa ATCC 10145 after 48 hr by two-fold serial broth dilution method
[4] = system: Bacillus subtilis; assay: Antimicrobial activity against Bacillus subtilis ATCC 6633 after 48 hr by two-fold serial broth dilution method; conditions: ATCC 6633, 48 h
[5] = system: Escherichia coli; assay: Antimicrobial activity against Escherichia coli ATCC 11775 after 48 hr by two-fold serial broth dilution method; conditions: ATCC 11775, 48 h
[6] = system: Candida albicans; assay: Antimicrobial activity against Candida albicans DSM 70014 after 48 hr by two-fold serial broth dilution method; conditions: DSM 70014, 48 h
[7] = system: SR; assay: Growth inhibition of Homo sapiens (human) SR cells at 10 uM after 48 hr by SRB assay; conditions: read-out: GI

Row | MIC [1] | MIC [2] | MIC [4] | MIC [5] | MIC [6] | SMILES | MBC [1] | MBC [2] | Ratio [3] | MBC [4] | MBC [5] | MFC [6] | inhibition of growth at 10 µM [7]
1 | 12.5 µg/mL (≈ 34 µM) | 50 µg/mL (≈ 136 µM) | 50 µg/mL (≈ 136 µM) | 50 µg/mL (≈ 136 µM) | 50 µg/mL (≈ 136 µM) | COc1ccc(OC)c(/C=C/c2nnc(SC)n2-c2ccc(C)cc2)c1 | 25 µg/mL (≈ 68 µM) | 50 µg/mL (≈ 136 µM) | 4 | 50 µg/mL (≈ 136 µM) | 50 µg/mL (≈ 136 µM) | 50 µg/mL (≈ 136 µM) | –
2 | 100 µg/mL (≈ 262 µM) | 100 µg/mL (≈ 262 µM) | 50 µg/mL (≈ 131 µM) | 100 µg/mL (≈ 262 µM) | 100 µg/mL (≈ 262 µM) | CCSc1nnc(/C=C/c2cc(OC)ccc2OC)n1-c1ccc(C)cc1 | 100 µg/mL (≈ 262 µM) | 100 µg/mL (≈ 262 µM) | – | 100 µg/mL (≈ 262 µM) | 100 µg/mL (≈ 262 µM) | 100 µg/mL (≈ 262 µM) | –
3 | 12.5 µg/mL (≈ 25.5 µM) | 25 µg/mL (≈ 51.1 µM) | 25 µg/mL (≈ 51.1 µM) | 12.5 µg/mL (≈ 25.5 µM) | 50 µg/mL (≈ 102 µM) | COc1ccc(OC)c(/C=C/c2nnc(SCC(=O)c3cc(O)ccc3O)n2-c2ccccc2)c1 | 25 µg/mL (≈ 51.1 µM) | 50 µg/mL (≈ 102 µM) | 4 | 50 µg/mL (≈ 102 µM) | 25 µg/mL (≈ 51.1 µM) | 50 µg/mL (≈ 102 µM) | –
4 | 12.5 µg/mL (≈ 23.9 µM) | 50 µg/mL (≈ 95.4 µM) | 12.5 µg/mL (≈ 23.9 µM) | 25 µg/mL (≈ 47.7 µM) | 25 µg/mL (≈ 47.7 µM) | COc1ccc(OC)c(/C=C/c2nnc(SCC(=O)c3cc(O)ccc3O)n2-c2ccc(Cl)cc2)c1 | 25 µg/mL (≈ 47.7 µM) | 50 µg/mL (≈ 95.4 µM) | 4 | 25 µg/mL (≈ 47.7 µM) | 50 µg/mL (≈ 95.4 µM) | 50 µg/mL (≈ 95.4 µM) | –
5 | 50 µg/mL (≈ 148 µM) | 100 µg/mL (≈ 296 µM) | 100 µg/mL (≈ 296 µM) | 50 µg/mL (≈ 148 µM) | 100 µg/mL (≈ 296 µM) | COc1ccc(OC)c(/C=C/c2nnc(Nc3ccc(C)cc3)o2)c1 | 50 µg/mL (≈ 148 µM) | 100 µg/mL (≈ 296 µM) | – | 100 µg/mL (≈ 296 µM) | 50 µg/mL (≈ 148 µM) | 100 µg/mL (≈ 296 µM) | –
6 | 100 µg/mL (≈ 295 µM) | 50 µg/mL (≈ 147 µM) | 100 µg/mL (≈ 295 µM) | 50 µg/mL (≈ 147 µM) | 50 µg/mL (≈ 147 µM) | COc1ccc(OC)c(/C=C/c2nnc(Nc3ccccc3)s2)c1 | 100 µg/mL (≈ 295 µM) | 50 µg/mL (≈ 147 µM) | – | 100 µg/mL (≈ 295 µM) | 50 µg/mL (≈ 147 µM) | 50 µg/mL (≈ 147 µM) | –
7 | 100 µg/mL (≈ 267 µM) | 25 µg/mL (≈ 66.9 µM) | 100 µg/mL (≈ 267 µM) | 100 µg/mL (≈ 267 µM) | 25 µg/mL (≈ 66.9 µM) | COc1ccc(OC)c(/C=C/c2nnc(Nc3ccc(Cl)cc3)s2)c1 | 100 µg/mL (≈ 267 µM) | 100 µg/mL (≈ 267 µM) | – | 100 µg/mL (≈ 267 µM) | 100 µg/mL (≈ 267 µM) | 50 µg/mL (≈ 134 µM) | 32.1%
8 | 100 µg/mL (≈ 283 µM) | 100 µg/mL (≈ 283 µM) | 100 µg/mL (≈ 283 µM) | 100 µg/mL (≈ 283 µM) | 50 µg/mL (≈ 141 µM) | COc1ccc(OC)c(/C=C/c2nnc(Nc3ccc(C)cc3)s2)c1 | 100 µg/mL (≈ 283 µM) | 100 µg/mL (≈ 283 µM) | – | 100 µg/mL (≈ 283 µM) | 200 µg/mL (≈ 566 µM) | 50 µg/mL (≈ 141 µM) | –
9 | – | – | – | – | 5 µg/mL (≈ 14.5 µM) | Clc1ccccc1C(c1ccccc1)(c1ccccc1)n1ccnc1 [CLOTRIMAZOLE] | – | – | – | – | – | – | –

Row | SMILES | MIC [1] | MIC [2] | MIC [4] | MIC [5] | MIC [6] | MBC [1] | MBC [2] | Ratio [3] | MBC [4] | MBC [5] | MFC [6] | inhibition of growth at 10 µM [7]
10 | CC1(C)S[C@@H]2[C@H](NC(=O)[C@H](N)c3ccccc3)C(=O)N2[C@H]1C(=O)O.O.O.O [AMPICILLIN TRIHYDRATE] | 50 µg/mL | 5 µg/mL | 12.5 µg/mL | 10 µg/mL | – | – | – | – | – | – | – | –
